According to patent publication US8338430B2, “N-substituted piperazines” (Dow AgroSciences, LLC., priority 2005, dated 2012):

How the values were obtained:
Format in all cases: in vivo
[1] = test system: mosquito (Aedes aegypti) larvae; assay: Mosquito larvae mortality (AEDSAE); conditions: 72 h, 20 μg/ml, mortality three days after treatment, read-out: AEDSAE: % mortality against mosquito larvae
Protocol: (§1) The compounds identified in TABLE 2 were prepared using the procedures illustrated in the previous examples and these compounds were tested against beet armyworm, mosquito, fruit fly, and cotton aphid using protocols described after.
(§2) Compounds were evaluated on mosquito (Aedes aegypti) larvae, beet armyworm (Spodoptera exigua) larvae, fruit fly (Drosophila melanogaster) adults and cotton aphid (Aphis gossypi). Newly hatched mosquito larvae (about 50 larvae/well) in 96-well microtiter plates in 230 ul of water containing powdered liver/yeast extract (1 gr/100 ml) were treated with 20 ppm solution of the test compound. Following treatment the plates were covered with a lid and mortality was determined three days after treatment. Beet armyworm eggs (about 5 per well) were placed on artificial diet (in a 96-well microtiter plate) treated with a 4000 ppm solution of a test compound in combination with piperonyl butoxide (in approximate ratio of 1:4). After infestation, the plates were covered with a lid and mortality was determined seven days following treatment. Five-day old fruit fly adults (about 5/well) were placed in deep-well microtiter plates containing 250 ul/well of a 2% agar-10% sucrose mixture that had been treated with a 4000 ppm solution of a test compound. Following infestation, the plates were covered with a lid and mortality was determined three days after treatment. Treatments for the mosquito and armyworm were replicated six times each, that of the fruit fly three times each.

[2] = test system: fruit fly (Drosophila melanogaster) adults; assay: Adult fruit fly mortality on artificial diet (DROSME); conditions: 72 h, 4000 μg/ml, mortality three days after treatment, read-out: DROSME: % mortality against adult fruit fly on artificial diet
Protocol: as §1, §2

[3] = test system: beet armyworm (Spodoptera exigua) larvae; assay: Beet armyworm mortality on artificial diet (LAPHEG); conditions: 168 h, 4000 μg/ml, with piperonyl butoxide (approx. 1:4), mortality seven days after treatment, read-out: LAPHEG: % mortality against beet armyworm on artificial diet
Protocol: as §1, §2

[4] = test system: cotton aphid (Aphis gossypi); assay: Cotton aphid foliar spray test on squash (CA 200); conditions: 72 h, squash cotyledons, 3 days, Corrected % Control (Abbott), read-out: CA 200: % control against cotton aphid in foliar spray tests
Protocol: The compounds identified in TABLE 2 were prepared using the procedures illustrated in the previous examples and these compounds were tested against beet armyworm, mosquito, fruit fly, and cotton aphid using protocols described after. […]
Squash with fully expanded cotyledon leaves were trimmed to one cotyledon per plant and infested with cotton aphid (wingless adult and nymph) 1 day prior to chemical application.
Each plant is examined before chemical application to ensure proper infestation (ca. 30-70 aphids per plant). Compounds (3 mg) were dissolved in 3 mL of acetone:methanol (50:50) solvent, forming stock solutions of 1000 ppm. The stock solutions were then diluted with 0.025% Tween 20 (in H2O) to make […]. A hand-held Devilbiss sprayer was used to apply the spray solutions until runoff to both sides of the squash cotyledon leaves. Four plants (4 replications) were used for each concentration of each compound. Reference plants (solvent check) were sprayed with 0.025% Tween 20 only. Treated plants were held in a holding room for 3 days at approximately 23° C. and 40% RH before the number of live aphids on each plant was recorded. Insecticidal activity was measured by Corrected % Control using Abbott's correction formula and presented in TABLE 2: Corrected % Control=100*(X−Y)/X • where X=No. of live aphids on solvent check plants • Y=No. of live aphids on treated plants

[5] = test system: Leptosphaeria nodorum=Stagnospora nodorum; assay: Fungicidal test for LEPTNO, glume blotch of wheat, one day protectant; conditions: 24 h, wheat plants (variety Yuma), sprayed one day before inoculation
Protocol: (§3) The compounds identified in Table 4 were prepared using the procedures illustrated in the previous examples and these compounds were tested against wheat glume blotch and wheat leaf blotch using the protocols described herein. Fungicidal Test for […] Each pot contained 3-20 seedlings. These plants were sprayed until wet with the formulated test compound at a rate of 25 ppm. On the following day, the leaves were inoculated with an aqueous spore suspension of Leptosphaeria nodorum and the plants were kept in high humidity (one day in a dark dew chamber followed by four to seven days in a lighted dew chamber) to permit spores to germinate and infect the leaf. The plants were then transferred to a greenhouse until disease developed on untreated control plants.

[6] = test system: Mycosphaerella graminicola=Septoria tritici; assay: Fungicidal test for SEPTTR, speckled leaf blotch of wheat, one day protectant; conditions: 24 h, wheat plants (variety Monon), sprayed one day before inoculation
Protocol: as §3, with “Speckled Leaf Blotch of Wheat (Mycosphaerella graminicola=Septoria tritici; Bayer code […]): Wheat plants (variety Monon) were grown from seed in a greenhouse in 50% pasteurized soil/50% soil-less mix until the first true leaf was fully expanded, with 3-8 seedlings per pot.” for “Each pot contained 3-20 seedlings.”, “Septoria tritici” for “Leptosphaeria nodorum”, “leaf” for “leaf.”

SMILES | mortality at 20 µg/mL [1] [%] | mortality at 4000 µg/mL [2] [%] | mortality at 4000 µg/mL [3] [%] | pest or weed control at 200 ppm [4] [%] | pest or weed control at 25 ppm [5] [%] | pest or weed control at 25 ppm [6] [%]
Clc1cc2c(cc1CN1CCN(CCc3ccccc3)CC1)OCO2 [Compound 104] | 1 to 25 | 50 to 100 | 1 to 25 | 50 to 100 |  | 
CC(=O)c1ccccc1C(=O)N1CCN(CCc2ccccc2C(F)(F)F)CC1 [Compound 105] | 1 to 25 | 1 to 25 | 1 to 25 | 50 to 100 |  | 
FC(F)(F)c1ccccc1CCN1CCN(Cc2ccc3c(c2)OCO3)CC1 [Compound 107] | 1 to 25 | 50 to 100 | 1 to 25 | 50 to 100 |  | 
COc1ccc(CN2CCN(CCc3ccccc3C(F)(F)F)CC2)c(Cl)c1OC [Compound 108] | 1 to 25 | 1 to 25 | 1 to 25 | 50 to 100 |  | 
CCOCCN1CCN(Cc2ccc(OCc3ccccc3)cc2)CC1 [Compound 109] |  |  |  |  | 1 to 25 | 50 to 100
c1ccc(-c2ccccc2CN2CCN(CCc3ccccn3)CC2)cc1 [Compound 110] |  |  |  |  | 1 to 25 | 50 to 100
O=C(c1ccc(-c2ccccn2)s1)N1CCN(CCc2ccccc2C(F)(F)F)CC1 [Compound 126] | 1 to 25 | 1 to 25 | 1 to 25 | 50 to 100 |  | 
O=C(COc1ccccc1)N1CCN(C(=O)OCc2ccccc2)CC1 [Compound 139] | 1 to 25 | 1 to 25 | 26 to 49 |  |  | 
O=C(OCc1ccccc1)N1CCN(C(=O)c2cccs2)CC1 [Compound 146] | 1 to 25 | 1 to 25 | 1 to 25 |  |  | 
O=C(c1ccc2ccccc2n1)N1CCN(CCc2ccccc2C(F)(F)F)CC1 [Compound 156] | 1 to 25 | 1 to 25 | 1 to 25 | 50 to 100 |  | 
O=C(OCc1ccccc1)N1CCN(C(=O)c2ccc3ccccc3n2)CC1 [Compound 159] | 1 to 25 | 1 to 25 | 1 to 25 |  |  | 
Cc1nn(C)c2sc(C(=O)N3CCN(CCc4ccccc4C(F)(F)F)CC3)cc12 [Compound 160] | 1 to 25 | 1 to 25 | 1 to 25 | 1 to 25 |  | 
Cc1nn(C)c2sc(C(=O)N3CCN(C(C)c4ccccc4)CC3)cc12 (stereo not drawn) [Compound 162] | 1 to 25 | 26 to 49 | 1 to 25 |  |  | 
O=C(OCc1ccccc1)N1CCN(Cc2ccc(Cl)nc2)CC1 [Compound 192] | 1 to 25 | 1 to 25 | 1 to 25 |  |  | 
COC(=O)c1cccc(CN2CCN(CCOc3ccccc3)CC2)c1 [Compound 303] | 1 to 25 | 26 to 49 | 1 to 25 |  |  | 
O=C(c1ccccc1)c1ccc(CN2CCN(C(=O)C3CC3)CC2)cc1 [Compound 321] | 1 to 25 | 1 to 25 | 1 to 25 |  |  | 
CC(CN1CCN(Cc2cc3c(cc2Cl)OCO3)CC1)c1ccccc1 (stereo not drawn) [Compound 333] | 1 to 25 | 50 to 100 | 1 to 25 | 50 to 100 |  | 
